Where a name gives a salt, the structure may show the parent alone.
Assays:
[1] = test system: L. infantum intracellular amastigotes; assay: Leishmania infection assay (intracellular amastigotes in THP-1 macrophages); assay type: cell-based; conditions: THP-1, 48 h
Experimental: Human THP-1 monocytic cells were seeded at 1.2 x 10^5 cells/ml in 24-multidish plates (Nunc, Roskilde, Denmark) and differentiated to macrophages for 24 h in 1 ml of RPMI 1640 medium containing 10 ng/ml of phorbol 12-myristate 13-acetate (PMA) (Sigma-Aldrich, St. Louis, MO). Medium culture was removed, and 1.2 x 10^6 Leishmania amastigotes in 1 ml of THP-1 medium were added to each well. Four hours later, the medium with non-infective amastigotes was completely removed, washed 3 times with 1 phosphate-buffered saline (PBS), and replaced with new THP-1 medium and the corresponding treatment. After 48 h of treatment, medium was removed; THP-1 cells were washed 3 times with 1xPBS and detached with TrypLE Express (Invitrogen, Leiden, The Netherlands) according to the manufacturer's indications. Infection quantification was measured by flow cytometry. Drug concentrations ranged from 0.2 µM to 25 µM.

[2] = test system: L. infantum promastigotes; assay: Leishmanicidal activity on promastigotes (PI exclusion, flow cytometry); assay type: cell-based; conditions: Leishmania infantum, 24 h
Experimental: L. infantum promastigotes (MCAN/ES/ 89/IPZ229/1/89) were grown in RPMI-1640 medium (Sigma-Aldrich, St. Louis, MO, USA) supplemented with 10% heat-inactivated fetal calf serum (FCS), antibiotics, and 25 mm HEPES (pH 7.2) at 26 °C.
(§1) Drug treatment of amastigotes was performed during the logarithmic growth phase at a concentration of 1×10^6 parasites/mL at 37 °C for 24 h. Drug treatment of promastigotes was performed during the logarithmic growth phase at a concentration of 2×10^6 parasites/mL at 26 °C for 24 h. The percentage of living cells was evaluated by flow cytometry by the propidium iodide (PI) exclusion method.^17 Drug concentrations ranged from 0.2 µM to 25 µM.

[3] = target: recombinant Li-TryR (Leishmania infantum, UniProt A4HSF7); assay: Li-TryR oxidoreductase activity assay; assay type: biochemical
Experimental: Oxidoreductase activity was determined according to the method described by Hamilton et al. (Biochem. J., 2003, 369, 529-537). Briefly, reactions were carried out at 26 °C (250 µL) of HEPES pH 8.0 (40 mM) buffer containing EDTA (1 mM), NADPH (150 µM), NADP+ (30 µM), DTNB (25 µM), T[S]2 (1 µM), glicerol (0.02%), DMSO (1.5%) and recombinant Li-TryR (7 nM). […] Enzyme activity was monitored by the increase in absorbance at 412 nm for 1 h at 26 °C in a VERSAmax microplate reader (Molecular Devices, California, USA). All the assays were conducted in triplicate in at least three independent experiments. Data were analyzed using a non-linear regression model with the Grafit6 software (Erithacus, Horley, Surrey, UK).

[4] = test system: L. infantum axenic amastigotes; assay: Leishmanicidal activity on axenic amastigotes (PI exclusion, flow cytometry); assay type: cell-based; conditions: Leishmania infantum, 24 h
Experimental: L. infantum axenic amastigotes were grown in M199 (Invitrogen, Leiden, The Netherlands) medium supplemented with 10% heat inactivated FCS, 1 g/L β-alanine, 100 mg/L L-asparagine, 200 mg/L sacarose, 50 mg/L sodium pyruvate, 320 mg/L malic acid, 40 mg/L fumaric acid, 70 mg/L succinic acid, 200 mg/L α-ketoglutaric acid, 300 mg/L citric acid, 1.1 g/L sodium bicarbonate, 5 g/L MES, 0.4 mg/L hemin, 10 mg/L gentamicine pH 5.4 at 37 °C. THP-1 cells were grown in RPMI-1640 medium (Gibco, Leiden, The Netherlands) supplemented with 10% heat inactivated FCS, antibiotics, 1 mM HEPES, 2 mM glutamine and 1 mM sodium pyruvate, pH 7.2 at 37 °C and 5% CO2.
as §1

[5] = target: T1, Li-TryR dimeric form (Leishmania infantum, UniProt A4HSF7); assay: Dimer quantitation assay (ELISA), Li-TryR monomer displacement; assay type: binding
Experimental: The stability of the Li-TryR dimeric form in the presence of the compounds was evaluated using an Enzyme-Linked ImmunoSorbent Assay (ELISA). Briefly a dual (HIS/FLAG) tagged Li-TryR (400 nM) was incubated in a dimerization buffer (200 µL 300 mM NaCl, 50 mM Tris pH 8.0) for 16 h at 37 °C with agitation and in a humid atmosphere in the presence of different peptide concentration (10 to 90 µM) in 1.5ml tubes. Next, the tubes were centrifuged at 30000 rcf and supernatants were disposed in anti-flag coated 96 well plates and incubated 30 min, at 37°C with gentle shaking. Then the plates were washed ten times with TTBS (Tween 0.1%, 2 mM Tris, 138 mM NaCl 138 pH 7.6) and incubated with diluted monoclonal α-HIS HRP conjugated antibody (200 µL, Abcam, Cambridge, UK) in BSA (5%) in TTBS for 1 h at room temperature. The plates were washed once again as previously described and 1,2-phenylenediamine dihydrochloride (OPD) substrate (100 µL, Dako, Glostrup, Denmark) prepared according to manufacturer's instructions was added. The enzymatic reaction was stopped after 10 min with H2SO4 (100 µL, 0.5 M) and the absorbances were measured at 490 nm in a VERSAmax microplate reader (Molecular Devices, California, USA). All the assays were conducted in triplicate in at least three independent experiments. Data were analyzed using a non-linear regression model with the Grafit6 software (Erithacus, Horley, Surrey, UK). Table 1. IC50 ± SEM values for target compounds of formula I-A and I-B in the oxidoreductase activity assays and in the Li-TryR monomer displacement

[6] = test system: HepG2 cells; assay: Cytotoxicity assay, HepG2 (crystal violet); assay type: cell-based; conditions: Homo sapiens, HepG2, 24 h
Experimental: (§2) Human THP-1 monocytic cells were seeded at 1.2 x 10^5 cells/ml in 24-multidish plates (Nunc, Roskilde, Denmark) and differentiated to macrophages for 24 h in 1 ml of RPMI 1640 medium containing 10 ng/ml of phorbol 12-myristate 13-acetate (PMA) (Sigma-Aldrich, St. Louis, MO). Human HepG2 cells were seeded at 8 x 10^5 cells/ml in 24-multidish plates (Nunc, Roskilde, Denmark). After 24 h of drug treatment, both cell lines were washed with PBS and stained with violet crystal solution (0.2% in 2% ethanol) in for 10 min. at room temperature. After dye removal, cells were washed twice with water. Once dried, the wells were treated with 1% SDS for 30 min and the absorbance at 570nm was monitored in a plate reader. Table 2. EC50± SEM values for the compounds of formula I-A and I-B on L. infantum promastigotes, extracellular and intracellular amastigotes and cytotoxic activity in macrophage-differentiated THP-1 monocytes and HepG2 cell lines

[7] = test system: macrophage-differentiated THP-1 monocytes; assay: Cytotoxicity assay, macrophage-differentiated THP-1 (crystal violet); assay type: cell-based; conditions: Homo sapiens, THP-1, 24 h; read-out: EC50 (µM) THP-1 dif
Experimental: as §2

[8] = target: T1, Li-TryR dimeric form; conditions: background, ChemBioChem, 2013, 14(10), 1212-1217; cited from earlier work

Sequence of recombinant Li-TryR (A4HSF7 entry or part of it): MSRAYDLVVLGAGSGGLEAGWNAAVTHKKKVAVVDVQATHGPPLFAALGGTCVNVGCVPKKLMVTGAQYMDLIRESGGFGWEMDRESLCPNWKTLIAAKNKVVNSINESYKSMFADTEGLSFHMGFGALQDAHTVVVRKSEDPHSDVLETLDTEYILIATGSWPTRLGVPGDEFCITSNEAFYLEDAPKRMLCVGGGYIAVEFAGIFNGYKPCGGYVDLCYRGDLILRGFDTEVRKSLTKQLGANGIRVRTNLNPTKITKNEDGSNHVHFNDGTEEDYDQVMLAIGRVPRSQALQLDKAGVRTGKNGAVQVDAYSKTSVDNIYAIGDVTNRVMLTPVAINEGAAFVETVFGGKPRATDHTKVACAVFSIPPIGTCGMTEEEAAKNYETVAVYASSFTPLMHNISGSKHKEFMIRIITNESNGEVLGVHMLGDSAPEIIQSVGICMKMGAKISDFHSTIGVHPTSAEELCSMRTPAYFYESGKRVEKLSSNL
T1 sequence (A4HSF7 entry or part of it): as above

Row | Compound | EC50 [1] | EC50 [2] | IC50 [3] | EC50 [4] | IC50 [5] | EC50 [6] | EC50 [7] | Li-TryR dimerization inhibition [8]
1 | CC(C)(C)Cc1csc(-c2ccc(-n3cc(CCCCN)nn3)cc2OCCN2CCNC2=O)n1 [Compound 8b, 1-(2-(5-(4-(4-Aminobutyl)-1H-1,2,3-triazol-1-yl)-2-(4-neopentylthiazol-2-yl)phenoxy)ethyl)imidazolidin-2-one 2,2,2 trifluoroacetate] | 30.2 ± 1.7 µM | 45 ± 3.51 µM | 17.2 ± 1.69 µM | 18.2 ± 0.4 µM | > 75 µM | – | – | –
2 | NCCCCc1cn(-c2ccc(-c3nc(CCc4ccc(-c5ccccc5)cc4)cs3)c(OCCN3CCNC3=O)c2)nn1 [Compound 8h, 1-(2-(2-(4-(2-([1,1'-Biphenyl]-4-yl)ethyl)thiazol-2-yl)-5-(4-(4-aminobutyl)-1H-1,2,3-triazol-1-yl)phenoxy)ethyl)imidazolidin-2-one 2,2,2 trifluoroacetate] | – | 5.44 ± 0.44 µM | 11.6 ± 2.05 µM | 13.9 ± 0.93 µM | 5.94 ± 0.99 µM | 43.1 ± 2.65 µM | 45.7 ± 0.6 µM | –
3 | NCCCCc1cn(-c2ccc(-c3nc(CCc4ccc5ccccc5c4)cs3)c(OCCN3CCNC3=O)c2)nn1 [Compound 8g, 1-(2-(5-(4-(4-Aminobutyl)-1H-1,2,3-triazol-1-yl)-2-(4-(2-(naphthalen-2-yl)ethyl)thiazol-2-yl)phenoxy)ethyl)imidazolidin-2-one 2,2,2 trifluoroacetate] | 31.2 ± 1.9 µM | 8.79 ± 0.75 µM | 6.22 ± 1.01 µM | 23 ± 1.86 µM | 11.2 ± 0.41 µM | 33.3 ± 2.7 µM | 47.6 ± 3.3 µM | –
4 | C[n+]1nn(-c2ccc(-c3nc(CCc4ccc5ccccc5c4)cs3)c(OCCN3CCNC3=O)c2)cc1CCCCN [Compound 10c, 4-(4-Ammoniobutyl)-3-methyl-1-(4-(4-(2-(naphthalen-2-yl)ethyl)thiazol-2-yl)-3-(2-(2-oxoimidazolidin-1-yl)ethoxy)phenyl)-1H-1,2,3-triazol-3-ium 2,2,2-trifluoroacetate trifluoromethanesulfonate] | – | 17.9 ± 3.76 µM | 2.67 ± 0.13 µM | 12.9 ± 0.51 µM | 82.7 ± 2.4 µM | ≥ 75 µM | ≥ 75 µM | –
5 | C[n+]1nn(-c2ccc(-c3nc(CCc4ccc(-c5ccccc5)cc4)cs3)c(OCCN3CCNC3=O)c2)cc1CCCCN [Compound 10e, 1-(4-(4-(2-([1,1'-Biphenyl]-4-yl)ethyl)thiazol-2-yl)-3-(2-(2-oxoimidazolidin-1-yl)ethoxy)phenyl)-4-(4-ammoniobutyl)-3-methyl-1H-1,2,3-triazol-3-ium 2,2,2-trifluoroacetate trifluoromethanesulfonate] | 19.5 ± 1 µM | 18.7 ± 1.26 µM | 5.19 ± 0.82 µM | 11.6 ± 1.14 µM | 23.8 ± 0.96 µM | ≥ 75 µM | 21.6 ± 0.7 µM | –
6 | PKIIQSVGIS-Nle-K-Nle: 13-mer linear peptide derived from an α-helix spanning residues P435 to M447 of Li-TryR; prototype dimerization inhibitor (C-terminal Nle-K-Nle) | – | – | – | – | – | – | – | low micromolar range
7 | PEIIQSVGIS-Nle-K-Nle: 13-mer linear peptide derived from an α-helix spanning residues P435 to M447 of Li-TryR; prototype dimerization inhibitor (C-terminal Nle-K-Nle) | – | – | – | – | – | – | – | low micromolar range
8 | NCCCCc1cn(-c2ccc(-c3nc(CCc4ccccc4)cs3)c(OCCN3CCNC3=O)c2)nn1 [Compound 8e, 1-(2-(5-(4-(4-Aminobutyl)-1H-1,2,3-triazol-1-yl)-2-(4-phenethylthiazol-2-yl)phenoxy)ethyl)imidazolidin-2-one 2,2,2 trifluoroacetate] | 33.6 ± 1.5 µM | 30.54 ± 0.16 µM | – | 13.9 ± 0.6 µM | – | 20.4 ± 2.37 µM | 27.2 ± 1.2 µM | –
